Results taken from article PMC4974056, “The proposed channel-enzyme transient receptor potential melastatin 2 does not possess ADP ribose hydrolase activity” (eLife, 2016).
Where “and” joins values, the source holds several entries; their conditions need not be identical. Equal entries are not always repeated.

What was measured:
T5L-TRPM2 = T5L-TRPM2 (Homo sapiens, UniProt O94759, G984L/INS985E/Y985D); assay: Excised inside-out patch-clamp recordings, ADPR-dependent channel activation; format: cell-based
Experimental: Oocytes isolated from anaesthetized Xenopus laevis were digested with collagenase, injected with 10–70 ng cRNA, and stored at 18°C. Recordings were done 2–3 days after injection.
The tip of the patch pipette was filled to ~1 cm height with 140 mM Na-gluconate, 2 mM Mg-gluconate2, 10 mM HEPES (pH 7.4 with NaOH); free [Ca^2+] ~4 μM. The pipette electrode was placed into a 140-mM NaCl-based solution carefully layered on top. Bath solution contained 140 mM Na-gluconate, 2 mM Mg-gluconate2, 10 mM HEPES (pH 7.1 with NaOH), and either 1 mM EGTA (to obtain 'zero' (~8 nM) Ca^2+) or 1 mM Ca-gluconate2 (to obtain 125 μM free Ca^2+) ([Csanády and Törocsik, 2009]). Na-ADPR was used at final concentrations of 0.32, 1, 3.2, 10, 32, 100, or 1000 μM, and the Na^+ salt of ε-ADPR at 100 μM. Macroscopic TRPM2 currents were recorded at 25°C at a membrane potential of −20 mV. Currents were amplified, filtered at 2 kHz (Axopatch 200B), digitized at 10 kHz (Digidata 1322A), and stored to disk (Pclamp9, Molecular Devices, Sunnyvale, CA, USA).
Dose dependence of ADPR-induced current activation, expressed as the ratio of mean macroscopic currents observed in the presence of various test [ADPR] (I) and 32 (or 100) μM ADPR (Imax) in the same patch, was fitted to the Hill equation (I/Imax = [ADPR]^n/(K^n+[ADPR]^n). Dose dependence of ADPR-activation in the presence of 100 μM ε-ADPR was expressed as the ratio of the currents observed in the presence of various test [ADPR] + 100 μM ε-ADPR (I) and 100 μM ADPR alone (Imax) in the same patch, and was fitted to the Hill equation substituting K' = K(1+[ε-ADPR]/KI) instead of K (K and n fixed to their control values). Macroscopic current decay time courses following removal of ADPR or Ca^2+ were fitted by single exponentials using the method of least squares.

Chi4S = target: T1, Chi4S (Homo sapiens, UniProt O94759); assay: Ligand binding assay based on quenching of ε-ADPR fluorescence; conditions: 100 μM Chi4S, 20 mM Tris pH 8.5/100 mM NaCl, 16 mM MgCl2; assuming negligible fluorescence of bound analog; read-out: Kd (upper estimate)
T1 construct: its C-terminal cytosolic NUDT9-homology (NUDT9H) domain; made in house; host or cells: E. coli BL21 (DE3), pJ411 plasmid
Experimental: The ligand binding ability of purified Chi4S protein was assessed using fluorescence quenching of the ADPR analogue 1, N^6-ethenoadenosine-5’-O-diphosphoribose (ε-ADPR - BIOLOG Life Science Institute, Bremen, Germany). A 350-μl volume of 100 μM Chi4S protein in 20 mM Tris (pH 8.5)/100 mM NaCl buffer, supplemented with 16 mM MgCl2, was titrated by increasing concentrations of ε-ADPR. Fluorescence emission scans (350–700 nm) were recorded at a fixed excitation wavelength of 310 nm (Hitachi F-7000, Hitachi High Technologies, Maidenhead, UK). Fluorescence emission for ε-ADPR peaks at ~410 nm. Protein-free buffer or 100 μM bovine serum albumin (BSA; instead of Chi4S) were used as controls. Data are shown as mean ± S.D. of two independent experiments.
Dose dependence of fluorescence (Em = 420 nm) of free ε-ADPR (in buffer) was fitted by an empirical non-linear function to produce a smooth calibration curve, used to obtain upper estimates of free [ε-ADPR] in the presence of 100 μM Chi4S protein and various total [ε-ADPR], assuming negligible fluorescence for the bound, relative to the free, form of the analog. The plot of free vs. total [ε-ADPR] was fitted by the simple binding equation [ε-ADPR]free=0.5([ε-ADPR]total−[P]total−Kd+([ε-ADPR]total−[P]total−Kd)^2+4Kd[ε-ADPR]total),
where [P]total is the total concentration of Chi4S protein (100 μM), and Kd is a free parameter. […]

Chain of T5L-TRPM2 (O94759 whole entry, stated change not applied): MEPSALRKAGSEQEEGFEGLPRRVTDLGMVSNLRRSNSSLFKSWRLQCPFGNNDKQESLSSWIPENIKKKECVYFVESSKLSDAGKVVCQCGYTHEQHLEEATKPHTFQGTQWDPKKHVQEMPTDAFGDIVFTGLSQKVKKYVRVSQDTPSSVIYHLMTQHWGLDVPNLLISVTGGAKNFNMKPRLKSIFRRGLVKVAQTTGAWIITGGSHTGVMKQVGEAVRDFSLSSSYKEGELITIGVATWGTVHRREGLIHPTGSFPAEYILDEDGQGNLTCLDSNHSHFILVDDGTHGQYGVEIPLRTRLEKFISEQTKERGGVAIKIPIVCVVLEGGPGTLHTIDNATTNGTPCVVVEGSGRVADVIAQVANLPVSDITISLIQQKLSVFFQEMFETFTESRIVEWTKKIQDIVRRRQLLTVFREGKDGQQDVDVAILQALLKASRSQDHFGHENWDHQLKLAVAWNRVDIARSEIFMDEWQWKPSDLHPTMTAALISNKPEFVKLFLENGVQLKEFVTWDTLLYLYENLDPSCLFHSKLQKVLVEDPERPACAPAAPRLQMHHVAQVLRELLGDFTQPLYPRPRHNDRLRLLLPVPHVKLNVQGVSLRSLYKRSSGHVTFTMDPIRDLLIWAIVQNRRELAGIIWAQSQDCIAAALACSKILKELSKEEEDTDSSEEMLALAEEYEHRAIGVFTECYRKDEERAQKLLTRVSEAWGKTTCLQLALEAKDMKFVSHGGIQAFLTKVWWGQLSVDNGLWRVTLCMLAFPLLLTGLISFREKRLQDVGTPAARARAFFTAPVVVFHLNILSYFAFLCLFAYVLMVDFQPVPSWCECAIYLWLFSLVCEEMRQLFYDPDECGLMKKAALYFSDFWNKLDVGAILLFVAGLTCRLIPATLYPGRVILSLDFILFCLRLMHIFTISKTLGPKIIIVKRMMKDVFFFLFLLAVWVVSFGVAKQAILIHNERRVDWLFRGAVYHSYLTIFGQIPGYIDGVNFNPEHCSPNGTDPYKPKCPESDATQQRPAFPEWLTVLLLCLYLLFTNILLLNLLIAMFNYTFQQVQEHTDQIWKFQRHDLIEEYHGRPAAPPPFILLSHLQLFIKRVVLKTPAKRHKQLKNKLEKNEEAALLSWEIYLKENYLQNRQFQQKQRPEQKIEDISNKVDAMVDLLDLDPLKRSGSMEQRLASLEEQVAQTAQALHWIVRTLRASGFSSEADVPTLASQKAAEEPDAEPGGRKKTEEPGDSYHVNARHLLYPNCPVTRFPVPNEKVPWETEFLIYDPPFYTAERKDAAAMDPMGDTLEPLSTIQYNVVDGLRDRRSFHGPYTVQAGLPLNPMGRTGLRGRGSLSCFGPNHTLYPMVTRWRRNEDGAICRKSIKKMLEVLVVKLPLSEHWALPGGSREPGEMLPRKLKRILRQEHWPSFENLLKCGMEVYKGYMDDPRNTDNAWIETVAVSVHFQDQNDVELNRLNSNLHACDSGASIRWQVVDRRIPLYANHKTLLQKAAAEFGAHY
T1 sequence (O94759 with tags, fused parts or gaps limits assumed): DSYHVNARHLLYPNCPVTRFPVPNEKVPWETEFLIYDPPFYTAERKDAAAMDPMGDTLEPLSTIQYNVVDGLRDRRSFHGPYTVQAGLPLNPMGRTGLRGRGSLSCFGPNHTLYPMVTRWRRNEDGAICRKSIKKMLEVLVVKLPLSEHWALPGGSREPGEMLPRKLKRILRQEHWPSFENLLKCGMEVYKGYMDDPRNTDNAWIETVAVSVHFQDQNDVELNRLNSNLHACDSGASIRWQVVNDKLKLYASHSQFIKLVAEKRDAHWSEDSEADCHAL

Ki (T5L-TRPM2; right-shift of ADPR dose response in the presence of 100 μM ε-ADPR, competitive fit, read-out: KI (Kε-ADPR) for binding to native NUDT9H): 112 ± 24 µM
Kd (Chi4S): 111 µM and ≤ 111 µM
SMILES: O=P(O)(OC[C@H]1OC(O)[C@H](O)[C@@H]1O)OP(=O)(O)OC[C@H]1O[C@@H](n2cnc3c2ncn2ccnc32)[C@H](O)[C@@H]1O (stereo partly drawn) [ε-ADPR, 1, N^6-ethenoadenosine-5’-O-diphosphoribose]
effect on ADPR-evoked TRPM2 currents (T5L-TRPM2; inside-out patch, 1 or 100 μM ADPR): suppressed ADPR-evoked TRPM2 currents in a dose-dependent manner
